Reference: patent US20200078404A1, “COMBINATION OF A CELL THERAPY AND AN IMMUNOMODULATORY COMPOUND” (Juno Therapeutics, Inc., priority 2017, published 2020)

Experiments:
[1] = tested on: anti-CD19 CAR-expressing T cells; assay: Cytokine production of anti-CD19 CAR-expressing T cells incubated with K562.CD19 target cells; assay type: cell-based, human; conditions: concentration-dependent, E:T 5:1 and 2.5:1, 24 hours, vs vehicle
[2] = tested on: anti-CD19 CAR-expressing T cells; assay: Surface markers after anti-idiotypic antibody stimulation; assay type: cell-based, human
Excerpt: CAR-expressing T cells were stained for CD3, CD4, CD8 and the surrogate marker for CAR expression, and also for the following markers: CD25, PD-1, and CD69.

anti-BCMA CAR+ T cells = assay: 3-D reconstructed bone marrow (rBone) myeloma model with RPMI-8226; assay type: cell-based, human; conditions: 1.0 μM lenalidomide
Excerpt: To assess cell function in the context of a three-dimensional (3-D) human BCMA-expressing tissue microenvironment, a reconstructed bone marrow (rBone™) (z[…], San Jose, Calif.) was embedded with BCMA-expressing RPMI-8226.
After 2 or 7 days, cells were isolated and assessed by flow cytometry for surface expression of CD3, CD25, CD4, and CD8.

RPMI-8226 target cells [3] = assay: Cytolytic activity of anti-BCMA CAR T cells co-cultured with RPMI-8226 target cells with or without lenalidomide; assay type: cell-based, human
Protocol: […]. […] Cells from each condition were plated in triplicate.

RPMI-8226 = conditions: read-out: sensitive to lenalidomide; cited from earlier work
[4] = tested on: anti-CD19 CAR-expressing T cells; assay: Serial stimulation with K562.CD19: surface markers; assay type: cell-based, human
Protocol: (§1) Every 3-4 days (start of each new round), the cells were counted.
Expression of select surface markers was assessed on cells at day 4 (i.e., 4 days after the first stimulation) and day 28 (i.e., 4 days after the seventh stimulation). Specifically, harvested cells were analyzed by flow cytometry for CD3, CD4, CD8 and the surrogate marker for CAR expression, and also for the following surface markers: CD69, CD107a, PD-1, CD25, CD62L, CCR7, CD45RO, CD27, and LAG3.

K562-CD19 cells = assay: Cytolytic activity of restimulated anti-CD19 CAR+ T cells against K562-CD19 cells; assay type: cell-based, human; conditions: 1 μM lenalidomide, 2nd and 4th restimulation
Protocol: Cells from each condition were plated in triplicate. Representative cell killing observed at the 2nd and 4th restimulation for both donors is shown in FIG. 18A (as normalized to K562-CD19-Nuc-labeled cells at t=0) or in FIG. 18B (% cell killing compared to vehicle only control (set at 100%)).

OPM-2 = conditions: read-out: sensitive to lenalidomide; cited from earlier work
anti-BCMA CAR T cells [5] = assay: Cytokine production on BCMA/PD-L1 conjugated beads; assay type: cell-based, human; conditions: 1 μM lenalidomide, 24 hours
Protocol: In another study, to explore whether the lenalidomide-induced potentiation of CAR T activation and cytokine production could override PD-L1-mediated inhibition, cells were cultured in the presence of BCMA beads generated as described in Example 9, with or without additional conjugation of human recombinant PD-L1-Fc. […] Cytokine production was measured in the supernatant.

K562.CD19 target cells [6] = assay: Serial stimulation with K562.CD19: cytolytic function at day 24; assay type: cell-based, human; conditions: day 24 after serial stimulation
Excerpt: as §1

anti-BCMA CAR T cells [7] = assay: Cytokines of anti-BCMA CAR T cells stimulated with BCMA-conjugated beads (supernatant, intracellular); assay type: cell-based, human; conditions: 24 hours
Protocol: Cryofrozen anti-BCMA CAR T cells, produced substantially as described in Example 2 and formulated at a 1:1 ratio of CD4+ and CD8+ T cells, were thawed.
Twenty four hours after addition of BCMA-conjugated beads, the presence of TNF-α, IFNγ, and IL-2 in culture supernatants was assessed.
In a further exemplary study, two different anti-BCMA CAR T cell compositions were generated from different donors, each containing T cells expressing the same anti-BCMA CAR. The cells were thawed and incubated with beads (diameter about 4.5 μm) from a 5 μg/mL or 200 μg/mL BCMA-conjugated bead composition generated as described in Example 1. […] Twenty four hours after addition of BCMA-conjugated beads, IL-2 production by the anti-BCMA CAR+ T cells was assessed in culture supernatants.
The cells were gated on transduced, live CD3+ cells, and assessed by flow cytometry for intracellular cytokine accumulation of IFNγ and TNFα in CD4+ and CD8+ cells.

K562.CD19 target cells [8] = assay: Cytolytic function of anti-CD19 CAR-expressing T cells against K562.CD19 target cells; assay type: cell-based, human
Protocol: K562.CD19 target cells were transduced with NucLight Red to permit their tracking by microscopy. Cytolytic activity was assessed by measuring the loss of viable target cells over a period of five days, as determined by red fluorescent signal (using the IncuCyte® Live Cell Analysis System, Essen Bioscience).

anti-CD19 CAR+ T cells = assay: CD25 and PD-1 surface expression of anti-CD19 CAR+ T cells incubated with K562-CD19 cells; assay type: cell-based, human
Protocol: After 120 hours of culture, cells were isolated and assessed by flow cytometry for surface expression of CD25 or PD-1 in CD4+ or CD8+ T cell subsets.

RPMI-8226 target cells [9] = assay: Serial restimulation on BCMA-conjugated beads, cytolytic activity against RPMI-8226 at each reset; assay type: cell-based, human; conditions: preincubated with 5 μM lenalidomide for 7 days or 14 days
Protocol: Anti-BCMA CAR T cell compositions were generated from three different donors, each containing T cells expressing the same anti-BCMA CAR, thawed, and were incubated for seven days with beads (diameter about 4.5 μm) at a 1:1 ratio of beads to cells from a 50 μg/mL BCMA-conjugated bead composition generated as described in Example 9.
Cells from each condition were plated in triplicate. The % cell killing compared to vehicle only control (set at 100%) was determined.

OPM-2 target cells = assay: Cytolytic activity of anti-BCMA CAR T cells co-cultured with OPM-2 target cells with or without lenalidomide; assay type: cell-based, human
Protocol: […]. The OPM-2 cells were labeled with NucLight Red (NLR) to permit tracking of target cells by microscopy substantially as described above. […] […].
[…]. Cytolytic activity was measured by loss of red fluorescent cells. […].

Nc1cccc2c1CN(C1CCC(=O)NC1=O)C2=O (centres unmarked) [lenalidomide, 3-(4-amino-1-oxo-1,3-dihydro-2H-isoindol-2-yl)piperidine-2,6-dione]
cytokine production (IFN-γ, IL-2, TNF-α) [1]: increased
surface markers CD25 and CD69 ([2]; CD4+ and CD8+ CAR-expressing T cells, day 4, some donors): increase in surface markers CD25 and CD69
expression of PD-1 ([2]; day 4, unchanged or decreased in the other donors): increased in the presence of Compound 1 or lenalidomide in cells generated from at least one donor
CD25+ expression in CD4+ and CD8+ T cell populations (anti-BCMA CAR+ T cells): increase in CD25+ expression
total number of CD3+ cells (anti-BCMA CAR+ T cells; day 7): increase in total number of CD3+ cells
target cell killing by anti-BCMA CAR+ T cells (RPMI-8226 target cells [3]; 1 μM or 10 μM lenalidomide, E:T 0.3:1, day 6, vs absence of lenalidomide): greater degree of target cell killing
time at which the effect of lenalidomide on cytolytic activity emerges (RPMI-8226 target cells [3]; in culture): > 50 h
treatment effect of lenalidomide on CAR T cytolytic activity (RPMI-8226 target cells [3]; three healthy donors and one IMiD-refractory patient, 0.01-10 μM): appeared to be donor-dependent
IC50 (RPMI-8226): 6.43 µM
expression of CD28 ([4]; CD4+ and CD8+ CAR-expressing T cells, day 28, three donors): decreased in a dose-dependent manner
PD-1 expression ([4]; both E:T ratios, day 4 and day 28): downregulated to some degree in all donors
CD25 and LAG3 expression ([4]; day 4): upregulated across all three donors
CCR7 expression ([4]; day 28): generally decreased at day 28
anti-CD19 CAR+ T cell cytolytic activity (K562-CD19 cells): decrease in anti-CD19 CAR+ T cell cytolytic activity
IC50 (OPM-2): 37.4 µM
secreted cytokine levels (IFN-γ, IL-2, TNF-α) (anti-BCMA CAR T cells [5]): potentiated secreted cytokine levels
cytolytic activity of anti-CD19 CAR-expressing T cells (K562.CD19 target cells [6]): increase the cytolytic activity
intracellular cytokine levels of IFNγ and TNFα (anti-BCMA CAR T cells [7]; 0.1 μM or 1 μM lenalidomide, 5, 50 or 200 μg/mL beads): increased by lenalidomide
IL-2 production (anti-BCMA CAR T cells [7]; 1 μM or 5 μM lenalidomide, 5 or 200 μg/mL BCMA beads, two donors): increased cytokine production
BCMA-induced CAR+ T cell cytokine production (IFNγ, IL-2, TNF-α) (anti-BCMA CAR T cells [7]; 5 μM lenalidomide, 5 or 50 μg/mL BCMA beads): increased BCMA-induced CAR+ T cell cytokine production
cytolytic activity of anti-CD19 CAR-expressing cells (K562.CD19 target cells [8]; 2.5:1 E:T ratio, some donors): slightly reduced cytolytic activity
cytolytic activity of anti-CD19 CAR-expressing T cells (K562.CD19 target cells [8]; 5:1 E:T ratio, high concentrations, Donor 2, no effects with Donors 1 and 3): slight but consistent increase in cytolytic activity
cytolytic function of anti-CD19 CAR-expressing T cells (K562.CD19 target cells [8]; five days, three donors): limited effect on cytolytic function
CD25 expression in CD4+ and CD8+ T cells (anti-CD19 CAR+ T cells; 1600 nM lenalidomide, E:T 2.5:1, 120 hours): higher levels of CD25 expression
surface expression of PD-1 in CD4+ or CD8+ T cells (anti-CD19 CAR+ T cells; up to 1600 nM lenalidomide, 120 hours): No difference in surface expression of PD-1
cytolytic activity (RPMI-8226 target cells [9]): exhibited greater cytolytic activity
cytolytic activity of anti-BCMA CAR+ T cells (OPM-2 target cells; 0.01-10 μM lenalidomide, E:T 1:1, 7 days, four donors): enhance cytolytic activity of the anti-BCMA CAR+ T cells against OPM-2 target cells, in a dose-dependent manner
antigen-specific anti-BCMA CAR-T cytolytic activity (OPM-2 target cells; healthy donor and multiple myeloma patient, E:T 0.3:1, 6 to 7 days): increased by lenalidomide in a concentration-dependent manner
anti-BCMA CAR T cytolytic activity (OPM-2 target cells; increased concentrations of lenalidomide, all donors): Increased anti-BCMA CAR T cytolytic activity against OPM-2 target cells
